Numbered stars: 1 amine (or outer) side, 2 acyl side, 3 side chain; on linkers, the order of the positions; unused ones are H or OH. Square brackets hold non-standard residues; d marks the D form. Side chains are listed from the residue outwards. Peptide text beside a SMILES is read from it. * marks the point of attachment. γGlu = O=C(O)[C@H](CCC(=O)[*:2])N[*:1]; Palmitoyl = CCCCCCCCCCCCCCCC(=O)*; AEEA = NCCOCCOCC(=O)O; Aib = CC(C)(N)C(=O)O
Key:
Assay type in all cases: physicochemical
[1] = Thioflavin T (ThT) assay for physical stability (fibrillation); conditions: 3 mg/ml, 100 mM acetate pH 4.5 with m-cresol, 37° C. shaking
From the text: Low physical stability of a peptide solution may lead to amyloid fibril formation, which is observed as well-ordered, thread-like macromolecular structures in the sample, which eventually may lead to gel formation. Thioflavin T (ThT) is widely used to visualize and quantify the presence of misfolded protein aggregates. [Biancalana et al. (2010) Biochimica et Biophysica Acta. 1804 (7): 1405-1412]. […] Enzymol. 309, 274-284]. The time course for fibril formation often follows the characteristic shape of a sigmoidal curve and can be separated into three regions: a lag phase, a fast growth phase, and a plateau phase.
The typical fibril formation process starts with the lag phase in which the amount of partially folded peptide turned into fibrils is not significant enough to be detected. The lag-time corresponds to the time the critical mass of the nucleus is built. Afterwards, a drastic elongation phase follows and fibril concentration increases rapidly.
Investigations were carried out to determine fibrillation tendencies under stress conditions by shaking at 37° C. within Fluoroskan Ascent FL.
For the tests in Fluoroskan Ascent FL, 200 μL sample were placed into a 96 well mictrotiter plate PS, flat bottom, Greiner Fluotrac No. 655076. Plates were sealed with Scotch Tape (Quiagen). Samples were stressed by continuous cycles of 10 s shaking at 960 rpm and 50 s rest period at 37° C. The kinetic was monitored by measuring fluorescence intensity every 20 minutes.
Peptides were diluted in a buffer system to a final concentration of 3 mg/ml. 20 μL of a 10.1 mM ThT solution in H2O were added to 2 mL of peptide solution to receive a final concentration of 100 μM ThT. For each sample eight replicates were tested.
Tht buffer system A) 100 mM Acetate pH 4.5 including m-cresol (100 mM Natriumacetat trihydrat, pH adjustment using 2N CH3COOH, 2.7 mg/mL m-cresol) Tht buffer system B) 100 mM citrate buffer pH 6.0
Lag time in hours in Thioflavin T (ThT) assay of peptide samples was determined in ThT buffer system A as described in Methods.

[2] = Dynamic light scattering, hydrodynamic radius as surrogate for DLS interaction parameter kD; conditions: for Delta Rh [nm] = Rh5 − Rh1: DLS buffer system A pH 4.5; for Rh1 [nm] c = 1 mg/ml / Rh5 [nm] c = 5 mg/ml: hydrodynamic radius, DLS buffer system A pH 4.5, method C, 25° C.
From the text: A monochromatic and coherent light beam (laser) is used to illuminate the liquid sample. Dynamic Light Scattering (DLS) measures light scattered from particles (1 nm≤radius≤1 μm) that undergo Brownian motion. This motion is induced by collisions between the particles and solvent molecules that themselves are moving due to their thermal energy. The diffusional motion of the particles results in temporal fluctuations of the scattered light [Pecora, R. Dynamic Light Scattering: Applications of Photon Correlation Spectroscopy, Plenum Press, 1985].
The scattered light intensity fluctuations are recorded and transformed into an autocorrelation function. By fitting the autocorrelation curve to an exponential function, the diffusion coefficient D of the particles in solution can be derived. The diffusion coefficient is then used to calculate the hydrodynamic radius Rh (or apparent Stokes radius) through the Stokes-Einstein equation assuming spherical particles. This calculation is defined in ISO 13321 and ISO 22412 [International Standard ISO13321 Methods for Determination of Particle Size Distribution Part 8: Photon Correlation Spectroscopy, International Organisation for Standardisation (ISO) 1996; International Standard ISO22412 Particle Size Analysis—Dynamic Light Scattering, International Organisation for Standardisation (ISO) 2008].
For every peptide solution, the hydrodynamic radius Rh and the diffusion constant D (related via the Stokes-Einstein equation) were determined as an average over triplicates. Both parameters were determined at different peptide concentrations (e.g., Rh1 and D1: 1 mg/ml and Rh5 and D5: 5 mg/ml) in the same buffer system. The difference of these parameters between low and high peptide concentration is a surrogate for the DLS interaction parameter kD. Rh5<Rh1 or D5>D1 correspond to kD>0 and therefore to repulsive inter-particle interactions that result in improved physical (or colloidal) stability.
DLS buffer system A) 25 mM acetate buffer pH 4.5, 3 mg/mL L-Methionine, 2.7 mg/mL m-cresol, 18 mg/mL Glycerol 85%
DLS Method C: DLS measurements were performed on a DynaPro Plate Reader II (Wyatt Technology, Santa Barbara, Calif., US) and using one of the following black, low volume, and non-treated plates: polystyrene 384 assay plate with clear bottom (Corning, N.Y., US), polystyrene 96 assay plate with clear bottom (Corning, N.Y., US), cyclo olefin polymer (COP) 384 assay plate with clear bottom (Aurora, Mont., US), or polystyrene 384 assay plate with clear bottom (Greiner Bio-One, Germany). The data were processed with the Dynamics software provided by Wyatt Technology. Parameters of the particle size distribution were determined with non-negatively constrained least squares (NNLS) methods using DynaLS algorithms. Measurements were taken at 25° C. with an 830 nm laser light source at an angle of 158°.
The hydrodynamic radius Rh of peptide samples was determined at different peptide concentrations (1 mg/ml and 5 mg/ml) in DLS buffer system A using DLS method C as described in Methods as surrogate for the DLS interaction parameter kD.

[3] = Chemical stability assessment, UPLC-UV purity loss in buffer system A; conditions: 1 mg/ml, 25 mM acetate buffer pH 4.5 with m-cresol
Description: Prior to the chemical stability measurement of a peptide batch, its purity was determined through UPLC/MS. For stability testing the target concentration was 1 mg pure compound/ml. Therefore solutions from solid samples were prepared in a buffer system with a concentration of 1 mg/mL compound based on the previously determined % purity:
Chemical stability buffer system A) 25 mM acetate buffer pH 4.5, 3 mg/mL L-Methionine, 2.7 mg/mL m-cresol, 18 mg/mL Glycerol 85% Chemical stability buffer system B) 25 mM phosphate buffer pH 6.0, 3 mg/mL L-Methionine, 2.7 mg/mL m-cresol, 18 mg/mL Glycerol 85%
Peptide solutions were filtered through […] pore size and filled into aliquots under aseptic conditions. At starting point, UPLC-UV was performed by injection of 2 μl of the undiluted sample.
For chemical stability testing, aliquots were stored for 28 days at 5 and 40° C. After this time course the samples were centrifuged for 15 min at 2500 RCF. Then 2 μl of the undiluted supernatant were analysed with UPLC-UV.
The chemical stability was rated through the relative loss of purity calculated by the equation: [(purity at starting point)−(purity after 28 days at X° C.)]/(purity at starting point)]*100%
The purity is calculated as
[(peak area peptide)/(total peak area)]*100%
Peptide samples were prepared in Chemical stability buffer system A and the stability was assessed as described in Methods.

SMILES	Lag time before increase [1] [h]	Delta Rh [nm] = Rh5 − Rh1 [2] [nm]	Rh1 [nm] c = 1 mg/ml [2] [nm]	Rh5 [nm] c = 5 mg/ml [2] [nm]	Chemical stability [relative purity loss 28 days 40° C.] (%) at pH 4.5 [3] [%]
CCCCCCCCCCCCCCCC(=O)NCCOCCOCC(=O)N[C@@H](CCC(=O)N[C@@H](CCC(=O)NCCCC[C@H](NC(=O)[C@H](CC(C)C)NC(=O)[C@H](CCCCN)NC(=O)[C@H](CO)NC(=O)[C@H](CC(C)C)NC(=O)[C@H](CC(=O)O)NC(=O)[C@H](CO)NC(=O)[C@@H](NC(=O)[C@H](Cc1ccccc1)NC(=O)[C@@H](NC(=O)CNC(=O)[C@H](Cc1c[nH]cn1)NC(=O)C(C)(C)NC(=O)[C@@H](N)Cc1c[nH]cn1)[C@@H](C)O)[C@@H](C)O)C(=O)N[C@@H](CCC(=O)O)C(=O)N[C@@H](CCC(=O)O)C(=O)N[C@@H](CCC(N)=O)C(=O)N[C@@H](CCCNC(=N)N)C(=O)N[C@@H](CCC(N)=O)C(=O)N[C@@H](CCCCN)C(=O)N[C@@H](CCC(=O)O)C(=O)N[C@@H](Cc1ccccc1)C(=O)N[C@H](C(=O)N[C@@H](CCC(=O)O)C(=O)N[C@@H](Cc1c[nH]c2ccccc12)C(=O)N[C@@H](CC(C)C)C(=O)N[C@@H](CCCCN)C(=O)N[C@@H](C)C(=O)NCC(=O)NCC(=O)N[C@@H](Cc1c[nH]cn1)C(=O)N1CCC[C@H]1C(=O)N[C@@H](CO)C(=O)NC(C)(C)C(=O)N[C@@H](CCCCN)C(=O)N1CCC[C@H]1C(=O)N1CCC[C@H]1C(=O)N1CCC[C@H]1C(=O)N[C@@H](CCCCN)C(N)=O)[C@@H](C)CC)C(=O)O)C(=O)O [SEQ ID NO: 14, H-Aib-H-G-T-F-T-S-D-L-S-K-L-K[gGlu-gGlu-AEEA-Palm]-E-E-Q-R-Q-K-E-F-I-E-W-L-K-A-G-G-H-P-S-Aib-K-P-P-P-K-NH2] (H-H[Aib]HGTFTSDLSKLK([γGlu-γGlu-AEEA-Palmitoyl])EEQRQKEFIEWLKAGGHPS[Aib]KPPPK-NH2)	>45	−0.1	3.0	2.9	8.1
CCCCCCCCCCCCCCCC(=O)NCCOCCOCC(=O)N[C@@H](CCC(=O)N[C@@H](CCC(=O)NCCCC[C@H](NC(=O)[C@H](CC(C)C)NC(=O)[C@H](CCCCN)NC(=O)[C@H](CO)NC(=O)[C@H](CC(C)C)NC(=O)[C@H](CC(=O)O)NC(=O)[C@H](CO)NC(=O)[C@@H](NC(=O)[C@H](Cc1ccccc1)NC(=O)[C@@H](NC(=O)CNC(=O)[C@H](Cc1c[nH]cn1)NC(=O)C(C)(C)NC(=O)[C@@H](N)Cc1c[nH]cn1)[C@@H](C)O)[C@@H](C)O)C(=O)N[C@@H](CCC(=O)O)C(=O)N[C@@H](CCC(=O)O)C(=O)N[C@@H](CCC(N)=O)C(=O)N[C@@H](CCCNC(=N)N)C(=O)N[C@@H](CCC(N)=O)C(=O)N[C@@H](CCCCN)C(=O)N[C@@H](CCC(=O)O)C(=O)N[C@@H](Cc1ccccc1)C(=O)N[C@H](C(=O)N[C@@H](CCC(=O)O)C(=O)N[C@@H](Cc1c[nH]c2ccccc12)C(=O)N[C@@H](CC(C)C)C(=O)N[C@@H](CCCCN)C(=O)N[C@@H](C)C(=O)N[C@H](C)C(=O)NCC(=O)N[C@@H](Cc1c[nH]cn1)C(=O)N1CCC[C@H]1C(=O)N[C@@H](CO)C(=O)NC(C)(C)C(=O)N[C@@H](CCCCN)C(=O)N1CCC[C@H]1C(=O)N1CCC[C@H]1C(=O)N1CCC[C@H]1C(=O)N[C@@H](CCCCN)C(N)=O)[C@@H](C)CC)C(=O)O)C(=O)O [SEQ ID NO: 15, H-Aib-H-G-T-F-T-S-D-L-S-K-L-K[gGlu-gGlu-AEEA-Palm]-E-E-Q-R-Q-K-E-F-1-E-W-L-K-A-dAla-G-H-P-S-Aib-K-P-P-P-K-NH2] (H-H[Aib]HGTFTSDLSKLK([γGlu-γGlu-AEEA-Palmitoyl])EEQRQKEFIEWLKA[dA]GHPS[Aib]KPPPK-NH2)	>45	−0.4	3.0	2.6	7.2

From US10538567B2, “Compounds as peptidic trigonal GLP1/glucagon/GIP receptor agonists” (priority 2016, dated 2020)
